Measured values as given in the supplement of paper PMC5908809.

Assays:
[1] = tested on: normal NK cells expanded with K562-aAPC; experiment: percent inhibition of viability; higher = more inhibition; conditions: 72 h, IL-2 2.5 ng/mL
Experimental: (§1)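 Drug sensitivity and resistance testing on K562-aAPC-expanded normal NK cells: 5 concentrations (10-fold steps over a 10,000-fold range), 72 h at 37 °C, viability by CellTiter-Glo normalised to DMSO and benzethonium chloride controls; DSS from the fitted curve.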

[2] = tested on: normal NK cells expanded with K562-aAPC; experiment: drug sensitivity score (DSS) (DSS units); higher = more sensitive; extreme values may be limits of the assay; conditions: 72 h; IL-2 2.5 ng/mL
Experimental: as §1

NK-YS (IL-2 2.5 ng/mL) [3] = experiment: percent inhibition of viability; higher = more inhibition; conditions: 72 h
NKL (IL-2 2.5 ng/mL) [4] = experiment: as above; conditions: 72 h
[5] = tested on: normal primary NK cells, pool 3 (3 donors) (IL-2 2.5 ng/mL); experiment: as above; conditions: 72 h
[6] = tested on: normal primary NK cells, pool 2 (3 donors) (IL-2 2.5 ng/mL); experiment: as above; conditions: 72 h
IMC-1 (IL-2 20 ng/mL) [7] = experiment: as above; conditions: 72 h
YT (IL-2 2.5 ng/mL) [8] = experiment: as above; conditions: 72 h
SNK-6 (IL-2 2.5 ng/mL) [9] = experiment: as above; conditions: 72 h
KAI3 (IL-2 2.5 ng/mL) [10] = experiment: as above; conditions: 72 h
NK-92 (IL-2 2.5 ng/mL) [11] = experiment: as above; conditions: 72 h
[12] = tested on: normal primary NK cells, pool 1 (3 donors) (IL-2 2.5 ng/mL); experiment: as above; conditions: 72 h
DERL-7 (IL-2 2.5 ng/mL) [13] = experiment: as above; conditions: 72 h
[14] = tested on: normal primary NK cells, pool 1 (3 donors), resting (IL-2 0 ng/mL); experiment: as above; conditions: 72 h
KHYG-1 (IL-2 2.5 ng/mL) [15] = experiment: as above; conditions: 72 h
NK-YS (IL-2 2.5 ng/mL) [16] = experiment: drug sensitivity score (DSS) (DSS units); higher = more sensitive; extreme values may be limits of the assay; conditions: 72 h
NKL (IL-2 2.5 ng/mL) [17] = experiment: as above; conditions: 72 h
[18] = tested on: normal primary NK cells, pool 3 (3 donors) (IL-2 2.5 ng/mL); experiment: as above; conditions: 72 h
[19] = tested on: normal primary NK cells, pool 2 (3 donors) (IL-2 2.5 ng/mL); experiment: as above; conditions: 72 h
IMC-1 (IL-2 20 ng/mL) [20] = experiment: as above; conditions: 72 h
YT (IL-2 2.5 ng/mL) [21] = experiment: as above; conditions: 72 h
SNK-6 (IL-2 2.5 ng/mL) [22] = experiment: as above; conditions: 72 h
KAI3 (IL-2 2.5 ng/mL) [23] = experiment: as above; conditions: 72 h
NK-92 (IL-2 2.5 ng/mL) [24] = experiment: as above; conditions: 72 h
[25] = tested on: normal primary NK cells, pool 1 (3 donors) (IL-2 2.5 ng/mL); experiment: as above; conditions: 72 h
DERL-7 (IL-2 2.5 ng/mL) [26] = experiment: as above; conditions: 72 h
[27] = tested on: normal primary NK cells, pool 1 (3 donors), resting (IL-2 0 ng/mL); experiment: as above; conditions: 72 h
KHYG-1 (IL-2 2.5 ng/mL) [28] = experiment: as above; conditions: 72 h

O=C(Nc1ccc(-c2ccnc(Nc3ccc(N4CCOCC4)cc3)n2)cc1)C1CCCN1 (stereo not drawn) [XL019] (max concentration tested 10000 nM)
percent inhibition of viability [%]
Conditions	1 nM	10 nM	100 nM	1000 nM	10000 nM
DERL-7 (IL-2 2.5 ng/mL) [13]	0.19	0.52	7.06	25.9	71.8
IMC-1 (IL-2 20 ng/mL) [7]	-1.28	-4.89	1.81	-0.33	61.4
KAI3 (IL-2 2.5 ng/mL) [10]	-6.77	-0.02	6.51	18.2	83.2
KHYG-1 (IL-2 2.5 ng/mL) [15]	-4.32	-2.94	2.79	6.64	81.2
NK-92 (IL-2 2.5 ng/mL) [11]	1.46	-2	-6.58	-8.42	44.8
NK-YS (IL-2 2.5 ng/mL) [3]	-3	-6.33	-0.83	6.03	49.6
NKL (IL-2 2.5 ng/mL) [4]	-2.13	4.85	23.2	31.3	72.5
SNK-6 (IL-2 2.5 ng/mL) [9]	-2.35	-15.3	3.5	-9.49	27.1
YT (IL-2 2.5 ng/mL) [8]	0.46	-0.22	5.02	2.15	33.3
[1]	-3.5	-1.96	2.68	12.6	72
[5]	-1.82	6.1	-1.33	13.9	81.2
[6]	-2.68	-3.46	-5.23	19.5	74.1
[12]	-9.78	0.22	-10.4	9.22	80
[14]	1.73	2.9	-4.73	19.1	61.7

Conditions	drug sensitivity score
DERL-7 (IL-2 2.5 ng/mL) [26]	6.99
IMC-1 (IL-2 20 ng/mL) [20]	3.31
KAI3 (IL-2 2.5 ng/mL) [23]	7.51
KHYG-1 (IL-2 2.5 ng/mL) [28]	5.54
NK-92 (IL-2 2.5 ng/mL) [24]	1.81
NK-YS (IL-2 2.5 ng/mL) [16]	3.62
NKL (IL-2 2.5 ng/mL) [17]	9.26
SNK-6 (IL-2 2.5 ng/mL) [22]	0.74
YT (IL-2 2.5 ng/mL) [21]	1.85
[2]	6.07
[18]	6.8
[19]	7.07
[25]	5.96
[27]	6.18

CC[C@H](Nc1ncnc2[nH]cnc12)c1nc2cccc(F)c2c(=O)n1-c1ccccc1 [Idelalisib] (max concentration tested 10000 nM)
percent inhibition of viability [%]
Conditions	1 nM	10 nM	100 nM	1000 nM	10000 nM
DERL-7 (IL-2 2.5 ng/mL) [13]	0.81	7.45	12.8	35.1	66.8
IMC-1 (IL-2 20 ng/mL) [7]	-6.02	-6.45	-0.47	-2.08	11.1
KAI3 (IL-2 2.5 ng/mL) [10]	-6.15	4.84	14.3	12.3	24.5
KHYG-1 (IL-2 2.5 ng/mL) [15]	-5.24	5.27	6.69	5.88	20.5
NK-92 (IL-2 2.5 ng/mL) [11]	7.56	15.2	42.3	40.1	54.5
NK-YS (IL-2 2.5 ng/mL) [3]	-9.88	-3.78	3.49	-1.8	18
NKL (IL-2 2.5 ng/mL) [4]	-12.5	-5.82	11	18.2	37
SNK-6 (IL-2 2.5 ng/mL) [9]	-11.8	-5.04	17.2	23.9	57.8
YT (IL-2 2.5 ng/mL) [8]	1.69	6.88	13.7	12.4	27.4
[1]	-1.29	-3.37	3.42	14.1	38.7
[5]	-3.21	-0.12	6.64	10.3	26.2
[6]	-10.8	-5.29	14.8	13.4	35.6
[12]	-2.62	10.2	9.54	5.66	28.7
[14]	1.24	15.1	10.3	1.19	46.2

Conditions	drug sensitivity score
DERL-7 (IL-2 2.5 ng/mL) [26]	8.42
IMC-1 (IL-2 20 ng/mL) [20]	0
KAI3 (IL-2 2.5 ng/mL) [23]	2.76
KHYG-1 (IL-2 2.5 ng/mL) [28]	0.8
NK-92 (IL-2 2.5 ng/mL) [24]	14.8
NK-YS (IL-2 2.5 ng/mL) [16]	0.36
NKL (IL-2 2.5 ng/mL) [17]	3.92
SNK-6 (IL-2 2.5 ng/mL) [22]	6.33
YT (IL-2 2.5 ng/mL) [21]	3
[2]	3.47
[18]	1.78
[19]	3.36
[25]	1.85
[27]	2.55

COc1cc(C(=O)O)ccc1NC(=O)[C@@H]1N[C@@H](CC(C)(C)C)[C@](C#N)(c2ccc(Cl)cc2F)[C@H]1c1cccc(Cl)c1F [RG7388] (max concentration tested 10000 nM)
percent inhibition of viability [%]
Conditions	DERL-7 (IL-2 2.5 ng/mL) [13]	KAI3 (IL-2 2.5 ng/mL) [10]	KHYG-1 (IL-2 2.5 ng/mL) [15]	NK-92 (IL-2 2.5 ng/mL) [11]	NK-YS (IL-2 2.5 ng/mL) [3]	NKL (IL-2 2.5 ng/mL) [4]	SNK-6 (IL-2 2.5 ng/mL) [9]	YT (IL-2 2.5 ng/mL) [8]	[12]	[14]
1 nM	-5.33	5.19	-1.57	2.22	1.18	2.91	3.57	6.01	1.86	-11.7
10 nM	3.83	25.6	1.09	-12.5	18.7	8.19	25.5	14.9	-0.07	10.5
100 nM	51.1	39.8	-3.21	8.42	53.1	7.58	70.5	38.6	41.8	85.2
1000 nM	96.7	59.1	-4.2	8.41	82.9	5.83	81.8	50.9	90.3	92.2
10000 nM	101	68.4	53.8	65.4	99.9	67	92.7	86.7	99.1	93.6

Conditions	drug sensitivity score
DERL-7 (IL-2 2.5 ng/mL) [26]	23.8
KAI3 (IL-2 2.5 ng/mL) [23]	18.3
KHYG-1 (IL-2 2.5 ng/mL) [28]	2.54
NK-92 (IL-2 2.5 ng/mL) [24]	5
NK-YS (IL-2 2.5 ng/mL) [16]	23.3
NKL (IL-2 2.5 ng/mL) [17]	4.61
SNK-6 (IL-2 2.5 ng/mL) [22]	27.2
YT (IL-2 2.5 ng/mL) [21]	16.1
[25]	21.8
[27]	28.8

Cc1sc2c(c1C)C(c1ccc(Cl)cc1)=N[C@@H](CC(=O)OC(C)(C)C)c1nnc(C)n1-2 [(+)JQ1] (max concentration tested 10000 nM)
percent inhibition of viability [%]
Conditions	DERL-7 (IL-2 2.5 ng/mL) [13]	KAI3 (IL-2 2.5 ng/mL) [10]	KHYG-1 (IL-2 2.5 ng/mL) [15]	NK-92 (IL-2 2.5 ng/mL) [11]	NK-YS (IL-2 2.5 ng/mL) [3]	NKL (IL-2 2.5 ng/mL) [4]	SNK-6 (IL-2 2.5 ng/mL) [9]	YT (IL-2 2.5 ng/mL) [8]	[12]	[14]
1 nM	3.63	-7.52	-9.07	-5.26	-10.6	-9.69	-15.8	1.34	1.42	-3.74
10 nM	11.6	-10.2	-3.7	-16.7	-2.12	-1.54	-1.34	-1.16	1.32	-13
100 nM	54.6	3.52	24.7	-31.8	19.8	29.4	12.2	8.16	9.32	-3.42
1000 nM	96.1	47.9	89.8	22.2	62.4	69	71.4	56.7	56.9	34
10000 nM	98.5	53.6	92.7	35.5	73.2	60.9	74.2	59.4	84.1	74.8

Conditions	drug sensitivity score
DERL-7 (IL-2 2.5 ng/mL) [26]	24.3
KAI3 (IL-2 2.5 ng/mL) [23]	9.24
KHYG-1 (IL-2 2.5 ng/mL) [28]	19.9
NK-92 (IL-2 2.5 ng/mL) [24]	4.26
NK-YS (IL-2 2.5 ng/mL) [16]	13.9
NKL (IL-2 2.5 ng/mL) [17]	16.6
SNK-6 (IL-2 2.5 ng/mL) [22]	15
YT (IL-2 2.5 ng/mL) [21]	11.7
[25]	12.1
[27]	8.55

Cc1cnc(Nc2ccc(OCCN3CCCC3)cc2)nc1Nc1cccc(S(=O)(=O)NC(C)(C)C)c1 (max concentration tested 10000 nM)
percent inhibition of viability [%]
Conditions	DERL-7 (IL-2 2.5 ng/mL) [13]	KAI3 (IL-2 2.5 ng/mL) [10]	KHYG-1 (IL-2 2.5 ng/mL) [15]	NK-92 (IL-2 2.5 ng/mL) [11]	NK-YS (IL-2 2.5 ng/mL) [3]	NKL (IL-2 2.5 ng/mL) [4]	SNK-6 (IL-2 2.5 ng/mL) [9]	YT (IL-2 2.5 ng/mL) [8]	[12]	[14]
1 nM	2.35	-2.12	-4.97	-22	-4.69	-6.46	-5	-4.96	2.15	-0.59
10 nM	0.3	8.65	-1.52	-8.95	1.18	3.43	-10.1	-1.05	0.15	16
100 nM	26.8	26.5	7.04	-15.3	10.9	50.6	-13.7	6.19	24.1	14.1
1000 nM	84.8	90.3	99.4	33	68.9	83.5	58.4	51.3	83	51.8
10000 nM	101	108	108	106	108	109	101	107	99.8	96.5

Conditions	drug sensitivity score
DERL-7 (IL-2 2.5 ng/mL) [26]	18.8
KAI3 (IL-2 2.5 ng/mL) [23]	19.8
KHYG-1 (IL-2 2.5 ng/mL) [28]	19
NK-92 (IL-2 2.5 ng/mL) [24]	10.2
NK-YS (IL-2 2.5 ng/mL) [16]	14.6
NKL (IL-2 2.5 ng/mL) [17]	22.6
SNK-6 (IL-2 2.5 ng/mL) [22]	12.4
YT (IL-2 2.5 ng/mL) [21]	11.8
[25]	18.2
[27]	12.3
